The text below walks through data of patent US5543521A, “Compounds that modulate endothelin activity” (Immunopharmaceutics, Inc., priority 1994, dated 1996).

Assay [1] deals with ETB receptors (non-cardiovascular tissues). The settings on record: kidney, adrenal gland, cerebellum; cited from earlier work.
For assay [2], the system named is ETA receptors (cardiovascular tissues). Conditions: cited from earlier work.
Assay [3] concerns isolated vascular strips. Conditions: read-out: EC50, contractile agent; cited from earlier work.
Assay [4] has as its system vasoconstriction. Conditions: cited from earlier work.
For assay [5], the system named is human ETB receptor. Nature of the assay: Endothelin Inhibition Binding Test #2: membranes of COS7 cells expressing the human ETB receptor. The settings on record: 125I-ET-1, COS7 membranes expressing human ETB receptor. The protocol: COS7 cells were transfected with DNA encoding the ETB receptor, The resulting cells, which express the human ETB receptor, were grown to confluence in T-150 flasks. Membrane was prepared as described above. The binding assay was performed as described above using the membrane preparation diluted with binding buffer to a concentration of 1 μg/100 μl.
The COS7 cells, described above, that had been transfected with DNA encoding the ETB receptor and express the human ETB receptor were grown to confluence in T-175 flasks. Cells from multiple flasks were collected by scraping, pooled and centrifuged for 10 min. at 190×g. The cells were resuspended in phosphate buffered saline (PBS) containing 10 mM EDTA using a Tenbroeck homogenizer. The suspension was centrifuged at 4° C. at 57,800×g for 15 min, the pellet was resuspended in 5 ml of buffer A (5mM HEPES buffer, pH 7.4 containing aprotinin (100 KIU/ml)) and then frozen and thawed once. 5 ml of Buffer B (5 mM HEPES Buffer, pH 7.4 containing 10 mM MnCl2 and 0.001% deoxyribonuclease Type 1) was added, the suspension mixed by inversion and then incubated at 37° C. for 30 minutes. The mixture was centrifuged at 57,800×g as described above, the pellet washed twice with buffer A and then resuspended in buffer C (30 mM HEPES buffer, pH 7.4 containing aprotinin (100 KIU/ml) to give a final protein concentration of 2 mg/ml. […]

Assay [6] has as its target T1, endothelin receptors (TE 671 cells) (Homo sapiens, UniProt P25101).
T1 construct: host or cells: TE 671 cells (membrane preparation)
T1 sequence (P25101 21-427): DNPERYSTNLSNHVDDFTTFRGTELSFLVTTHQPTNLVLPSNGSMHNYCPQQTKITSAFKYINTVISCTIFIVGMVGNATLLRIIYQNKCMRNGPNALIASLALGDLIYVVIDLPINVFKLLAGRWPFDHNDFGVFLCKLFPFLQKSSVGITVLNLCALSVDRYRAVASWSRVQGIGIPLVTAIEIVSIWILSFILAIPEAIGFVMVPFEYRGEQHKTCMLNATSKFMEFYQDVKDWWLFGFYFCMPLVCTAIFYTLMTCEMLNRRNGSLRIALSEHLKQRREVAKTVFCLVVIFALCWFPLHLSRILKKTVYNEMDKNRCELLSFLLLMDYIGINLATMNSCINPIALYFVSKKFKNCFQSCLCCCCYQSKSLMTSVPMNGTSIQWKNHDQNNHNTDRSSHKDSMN
In words: Endothelin Binding Inhibition Binding Test #1: inhibition of 125I-ET-1 binding to TE 671 cell membranes. Conditions: 125I-ET-1, TE 671 membranes, 4° C. for 16 hours, test compound 1 nM to 100 μM, triplicate. As for the experimental part: TE 671 cells (ATCC Accession No. HTB 139) were grown to confluence in T-175 flasks. Cells from multiple flasks were collected by scraping, pooled and centrifuged for 10 min at 190×g. The cells were resuspended in phosphate buffered saline (PBS) containing 10 mM EDTA using a Tenbroeck homogenizer. The suspension was centrifuged at 4° C. at 57,800×g for 15 min, the pellet was resuspended in 5 ml of buffer A (5 mM HEPES buffer, pH 7.4 containing aprotinin (100 KIU/ml)) and then frozen and thawed once. 5 ml of Buffer B (5 mM HEPES Buffer, pH 7.4 containing 10 mM MnCI2 and 0.001% deoxyribonuclease Type 1) was added, the suspension mixed by inversion and then incubated at 37° C. for 30 minutes. The mixture was centrifuged at 57,800×g as described above, the pellet washed twice with buffer A and then resuspended in buffer C (30 mM HEPES buffer, pH 7.4 containing aprotinin (100 KIU/ml) to give a final protein concentration of 2 mg/ml and stored at -70° C. until use.
The membrane suspension was diluted with binding buffer (30 mM HEPES buffer, pH 7.4 containing 150 mM NaCl, 5 mM MgCl2, 0.5% Bacitracin, 0.1% BSA) to a concentration of 6 μg/100 μl. […] The supernatant, containing unbound radioactivity, was decanted and the pellet counted on a Genesys multiwell gamma counter. The degree of inhibition of binding (D) was calculated according to the following equation: [formula] […]

The test system of assay [7] is endothelinB receptor. The settings on record: endothelinB receptor-rich tissues; cited from earlier work.
In assay [8] the target is cardiovascular receptors (ventricle membranes). Conditions: read-out: IC50, inhibition of 125 endothelin-1 binding; cited from earlier work.
Assay [9] deals with cardiovascular receptors (cultured aortic smooth muscle cells). Conditions: read-out: IC50, inhibition of 125 endothelin-1 binding; cited from earlier work.
Assay [10] addresses cardiovascular receptors (aortic smooth muscle membrane). The settings on record: read-out: IC50, inhibition of 125 endothelin-1 binding; cited from earlier work.
The subject of assay [11] is ETB receptors (cerebral tissue). The settings on record: cited from earlier work.
In assay [12] the test system is porcine pulmonary arteries. Conditions: cited from earlier work.
Assay [13] concerns endothelin-1. Conditions: cited from earlier work.

Square brackets hold non-standard residues; d marks the D form. Ends that are not written are not given here. Peptide text beside a SMILES is read from it. d(aIle) = CC[C@H](C)[C@@H](N)C(=O)O

As for “endothelin-1: potent twenty-one amino acid peptide vasoconstrictor”, the “inhibition of 125 endothelin-1 binding” value in assay [1] is “inhibited to the same extent by endothelin-1 and endothelin-3”. For the same molecule, the “potency of inhibition of 125 endothelin-1 binding relative to endothelin-3” value in assay [2] is recorded as 40-700. Further, the EC50 in [3] was 0.4 nM. Moreover, the vasoconstriction potency order result in [4] is “endothelin-2>endothelinol>endothelin-3”.

For the molecule `O=C(O)C1CCC2C(=O)NC(Cc3c[nH]c4ccccc34)C(=O)N12` (stereo not shown) [3-(3-indolylmethyl)-1,4-diaza-2,5-dioxobicyclo[4.3.0]nonane-9-carboxylic acid], the “activity in the second binding inhibition assay” value in [5] is “no detectable activity”. This molecule had an IC50 in assay [6] of 22500 nM.

With `CC[C@H](C)[C@H]1NC(=O)[C@H](C)NC(=O)[C@@H](CCC(=O)O)NC(=O)[C@@H](Cc2c[nH]c3ccccc23)NC(=O)[C@H](CC(C)C)NC1=O` [BE-18257B, c(D-Glu-L-Ala-allo-D-Ile-L-Leu-D-Trp)] (cyclo(A[d(aIle)]L[dW][dE])), the “concentration up to which it fails to inhibit binding” value in assay [7] was greater than 100 µM. The IC50 in assay [8] is 800 nM; in [9], 500 nM; in assay [10], 1400 nM.

On to “(Trp^6,Leu^7) endothelin-1 (CSCSSWLDKECVYFCHLDIIW; ends and bridges not checked; cysteine pairing not given here; UniProt P20800 49-69, looked up) [endothelin-2, endothelin isopeptide]”, for which the vasoconstriction potency order result in [4] is listed as “endothelin-2>endothelinol>endothelin-3”.

“[Ala^1,3,11,15 ]endothelin-1: endothelin-1 analog in which the four cys residues are replaced with Ala (ASASSLMDKEAVYFAHLDIIW; Endothelin-1; UniProt P05305 53-73, looked up, variant C1A C3A C11A C15A)”: the “inhibition of 125 ET-1 binding” value in assay [11] was “inhibits ^125 ET-1 binding to cerebral tissue”. Besides, the “relaxation of pre-contracted arteries” value in assay [12] is recorded as “dose-dependent relaxation of pre-contracted porcine pulmonary arteries”.

On to `CC(C)C[C@@H]1NC(=O)[C@@H](C(C)C)NC(=O)[C@@H]2CCCN2C(=O)[C@@H](CC(=O)O)NC(=O)[C@@H](Cc2c[nH]c3ccccc23)NC1=O` [BQ-123, c(D-Asp-Pro-D-Val-Leu-D-Trp)] (cyclo(L[dW][dD]P[dV])), for which, in [13], the “activity as endothelin-1 antagonists” value was “exhibit activity as endothelin-1 antagonists”.

“(Thr^2, Phe^4, Thr^5, Tyr^6, Lys^7, Tyr^14) endothelin-1 [endothelin-3]”: the “inhibition of 125 endothelin-1 binding” value in assay [1] was “inhibited to the same extent by endothelin-1 and endothelin-3”. The vasoconstriction potency order entry in assay [4] is reported as “endothelin-2>endothelinol>endothelin-3”.
